Reference: patent publication US10660967B2, “Curcumin conjugates and methods of use thereof” (priority 2016, dated 2020)
Where two headings read alike, the source gives them in different places.

Tests used:
[1] = system: Salmonella typhi ATCC19430; assay: Antimicrobial MIC, agar dilution; format: cell-based; details: Salmonella enterica, read-out: Minimum inhibitory concentration (MIC)
[2] = system: Candida albicans (local isolate); assay: Antimicrobial MIC, agar dilution; details: Candida albicans, read-out: Minimum inhibitory concentration (MIC)
[3] = system: Pseudomonas aeruginosa ATCC27853; assay: Antimicrobial MIC, agar dilution
[4] = system: lipopolysaccharide-stimulated peritoneal macrophages; assay: Production of nitric oxide by lipopolysaccharide-stimulated peritoneal macrophages (Greiss reagent); format: cell-based; design: Potency (%): % inhibition of nitric oxide production relative to lipopolysaccharide-stimulated macrophages: concentration or dose not given beside the values; details: LPS-stimulated peritoneal macrophages; for Nitric oxide (nitrite) concentration, μM (average ± SD): 24 h, nitrite by Greiss reagent
Protocol: The effects of the synthesized curcumin conjugates on the production of nitric oxide (μM) by lipopolysaccharide-stimulated peritoneal macrophages were evaluated.
Two milliliters of macrophage cells were seeded in 12-well tissue culture plates in nitrite-free medium supplemented with 0.1% bovine serum albumin and incubated at 37° C. LPS±epinephrine, norepinephrine, or dopamine at […] concentrations was added to some wells. The concentrations of LPS used ranged from 0.5 to 10 ng/ml. After incubation for 24 h, supernatants were collected for measuring nitric oxide (NO) by spectrophotometry. The production of NO was determined from the accumulation of nitrite (NO2), the metabolic end product of NO metabolism, in the medium using the Greiss reagent. About equal volumes (100 μl) of sample and Greiss reagent (1:1 mixture of 1% sulfanilamide in 5% phosphoric acid, and 0.1% a-naphthylamine in distilled water) were mixed and incubated at room temperature for 15 min, and absorbance was measured at 532 nm on a spectrophotometer.

[5] = system: Streptococcus pyogenes ATCC19615; assay: Antimicrobial MIC, agar dilution
[6] = system: Staphylococcus aureus ATCC25923; assay: Antimicrobial MIC, agar dilution
[7] = system: HCT116 (colon) carcinoma cell line; assay: Anti-tumor properties, MTT; format: cell-based; details: Homo sapiens, HCT-116; HCT116, 100 μM, 72 h; read-out: Percentage growth of tumor cell lines treated with the tested compounds (±SD)
Protocol: (§1) Anti-tumor properties of curcumin conjugates were evaluated. The synthesized curcumin-amino acid conjugates and curcumin itself were screened for their antitumor properties against human tumor cell lines utilizing HepG2 (hepatocellular), MCF7 (breast), and HCT116 (colon) carcinoma cell lines by the standard mitochondrial dependent reduction of yellow MTT [3-(4,5-dimethylthiazol-2-yl)-2,5-diphenyl-tetrazolium bromide] to purple formazan technique. Cancer cells were obtained from the Egyptian Company for Production of Vaccines, Sera and Drugs (VACSERA), Cairo, Egypt. Media, chemicals and supplies for the bio-assay were obtained from Biowest, Gibco and Lonza Companies. Cells were suspended in RPMI-1640 medium for HepG2, DMEMF12 for MCF-7, and DMEM for HCT116 in addition to 1% antibiotic-antimycotic mixture (10 […] potassium penicillin, 10 […] streptomycin sulfate and […] amphotericin B), 10% fetal bovine serum and 1% L-glutamine at 37° C., under 5% CO2 and 95% humidity. Cells were seeded at a concentration of 10×10^3 cells per well in fresh complete growth medium in 96-well tissue culture microtiter plates for 24 h. Media was aspirated, 180 μL fresh medium (without serum) were added and cells were incubated with different concentrations of sample to give a final concentration of 100 μM. 0.5% DMSO was used as a negative control and doxorubicin was used as a positive control (standard reference). Triplicate wells were prepared for each individual tested compound/dose. After 72 h of incubation, the medium was aspirated, 40 μL MTT salt (2.5 mg ml^1) were added to each well and incubated for an additional 4 h at 37° C. To stop the reaction and dissolve the formed crystals, 200 μL of 10% sodium dodecyl sulfate (SDS) in deionized water were added to each well and incubated overnight at 37° C. The absorbance was then measured at 595 nm with a reference wavelength of 620 nm. Data were collected as mean values for experiments performed in triplicates for each compound which had been measured by MTT assay.
(§2) The percentage of cell survival was calculated according to equation (4): […]
(§3) The IC50 was determined using Graph-Pad PRISM version-5 software. Statistical calculations for determination of the mean and standard deviation (SD) values were determined by SPSS 16 software.

[8] = system: MCF7 (breast) carcinoma cell line; assay: Anti-tumor properties, MTT; format: cell-based; details: Homo sapiens; MCF7, 100 μM, 72 h; read-out: Percentage growth of tumor cell lines treated with the tested compounds (±SD)
Protocol: as §1, §2, §3

[9] = system: HepG2 (hepatocellular) carcinoma cell line; assay: Anti-tumor properties, MTT; format: cell-based; details: Homo sapiens; HepG2, 100 μM, 72 h; read-out: Percentage growth of tumor cell lines treated with the tested compounds (±SD)
Protocol: as §1, §2, §3

[10] = system: PHA-stimulated splenocytes; assay: Proliferative response of PHA-stimulated splenocytes (MTT assay); format: cell-based; details: PHA 5 μg/ml, 72 hr; compounds at 5 μM (method says 10 μM); ratio of O.D. versus vehicle control
Protocol: Immunomodulatory effects of the synthesized curcumin conjugates on the proliferative response of PHA-stimulated splenocytes were evaluated. The effect of curcumin and its amino acid conjugates on splenocyte viability and proliferation in response to a T cell miotgen (Phytohaemagglutinin; PHA) was evaluated using the MTT assay. Freshly prepared splenocytes (1×10^6 cells/200 μl/well) were cultured in a 96-well U-bottom microtiter plate (Nunc) in complete medium. Cells were treated with tested compounds at a final concentration of 10 μM, vehicle (DMSO) or left untreated in triplicate then incubated at 37° C. and 5% CO2. When testing the immunoregulatory effects of the compounds on splenocyte stimulation, PHA (5 μg/ml) was added to the culture media to induce T cell proliferation. The proliferative response to PHA+vehicle and vehicle alone served as controls. After 72 hr, media were removed after pelleting the cells by centrifugation and MTT salt solution (5 mg/ml) was added into each well then incubated at 37° C. for 4 h. Afterwards, formazan crystals were dissolved by adding 150 μl 10% sodium dodecyl sulfate (SDS). Absorbance was measured with a spectrophotometer at 570 nm and reference wavelength of 690 nm.
Splenocyte stimulation index was determined as the ratio of O.D. values in tested compounds versus vehicle control cultures.

MCF-7 cells = assay: Effect on doxorubicin induced cytotoxicity (MTT); details: for Percentage of viable cells MCF-7 (average ± SD): 10 μM DOX in combination with 100 μM curcumin derivative, 48 hr; for viability at 100 µM: Homo sapiens, MCF7, 48 h, read-out: Percentage of viable cells MCF-7 (average ± SD)
Protocol: The effects of curcumin conjugates on doxorubicin induced cytotoxicity were evaluated. In order to further examine whether curcumin derivatives can enhance conventional chemotherapeutic agents, MCF-7 cells were treated with 100 μM curcumin derivatives alone or in combination with 10 μM doxorubicin (DOX) for 48 hr. Control cultures received only medium, vehicle (DMSO), or vehicle+DOX. The percentage of viable cells was determined by MTT assay according to equation (5): […]

[11] = ATCC27853, 18 h, read-out: Minimum inhibitory concentration (MIC)
[12] = ATCC27853, read-out: Minimum inhibitory concentration (MIC)
[13] = ATCC19615, 18 h, read-out: Minimum inhibitory concentration (MIC)
[14] = ATCC19615, read-out: Minimum inhibitory concentration (MIC)
[15] = ATCC25923, 18 h, read-out: Minimum inhibitory concentration (MIC)
[16] = ATCC25923, read-out: Minimum inhibitory concentration (MIC)

Row | SMILES | MIC ([1]; 18 h) | MIC [1] | MIC ([2]; 18 h) | MIC [2] | MIC [3, 11] | MIC [3, 12] | Potency (%): % inhibition of nitric oxide production relative to lipopolysaccharide-stimulated macrophages [4] | Nitric oxide (nitrite) concentration, μM (average ± SD) [4] | MIC [5, 13] | MIC [5, 14] | MIC [6, 15] | MIC [6, 16] | activity at 100 µM [7] | activity at 100 µM [8] | activity at 100 µM [9] | Stimulation Index (average ± SD) [10] | Percentage of viable cells MCF-7 (average ± SD) (MCF-7 cells) | viability at 100 µM (MCF-7 cells)
1 | COc1cc(/C=C/C(=O)CC(=O)/C=C/c2ccc(OC(=O)[C@@H](NC(=O)OCc3ccccc3)C(C)C)c(OC)c2)ccc1OC(=O)[C@@H](NC(=O)OCc1ccccc1)C(C)C [Cbz-Val-Cur, ((1E,6E)-3,5-dioxohepta-1,6-diene-1,7-diyl)bis(2-methoxy-4,1-phenylene) (2S,2′S)-bis(2-(((benzyloxy)carbonyl)amino)-3-methylbutanoate)] | 0.125 µg/mL | 0.15 µM | 1 µg/mL | 1.2 µM | 0.25 µg/mL | 0.299 µM | 5.68% | 25.76 ± 0.99 µM | 0.5 µg/mL | 0.599 µM | 0.125 µg/mL | 0.15 µM | 112 ± 7.9% | 85% | 92.4 ± 2.8% | 2.87 ± 0.11 | 49.68 ± 1.46 | 99.2 ± 2.15%
2 | COc1cc(/C=C/C(=O)CC(=O)/C=C/c2ccc(OC(=O)[C@H](C)NC(=O)OCC3c4ccccc4-c4ccccc43)c(OC)c2)ccc1OC(=O)[C@H](C)NC(=O)OCC1c2ccccc2-c2ccccc21 [Fmoc-Ala-Cur, ((1E,6E)-3,5-dioxohepta-1,6-diene-1,7-diyl)bis(2-methoxy-4,1-phenylene) (2S,2′S)-bis(2-((((9H-fluoren-9-yl)methoxy)carbonyl)amino)propanoate)] | 0.25 µg/mL | 0.262 µM | 1 µg/mL | 1.05 µM | 0.25 µg/mL | 0.262 µM | 20.22% | 21.79 ± 2.71 µM | 0.5 µg/mL | 0.524 µM | 0.5 µg/mL | 0.524 µM | 96.9 ± 3.2% | 73.6 ± 2.2% | 78.3 ± 5.1% | 2.22 ± 0.41 | – | 99.2 ± 3.65%
3 | COc1cc(/C=C/C(=O)CC(=O)/C=C/c2ccc(OC(=O)[C@H](CC(C)C)NC(=O)OCC3c4ccccc4-c4ccccc43)c(OC)c2)ccc1OC(=O)[C@H](CC(C)C)NC(=O)OCC1c2ccccc2-c2ccccc21 [Fmoc-Leu-Cur, ((1E,6E)-3,5-dioxohepta-1,6-diene-1,7-diyl)bis(2-methoxy-4,1-phenylene) (2S,2′S)-bis(2-((((9H-fluoren-9-yl)methoxy)carbonyl)amino)-4-methylpentanoate)] | 0.5 µg/mL | 0.481 µM | 0.5 µg/mL | 0.481 µM | 0.25 µg/mL | 0.241 µM | 21.88% | 21.34 ± 0.86 µM | 0.5 µg/mL | 0.481 µM | 0.25 µg/mL | 0.241 µM | 99.5 ± 3.8% | 83 ± 1.1% | 103 ± 2.6% | 2.16 ± 0.13 | 41.16 ± 2.33 | 98.2 ± 2.98%
4 | COc1cc(/C=C/C(=O)CC(=O)/C=C/c2ccc(OC(=O)[C@H](Cc3ccccc3)NC(=O)OCC3c4ccccc4-c4ccccc43)c(OC)c2)ccc1OC(=O)[C@H](Cc1ccccc1)NC(=O)OCC1c2ccccc2-c2ccccc21 [Fmoc-Phe-Cur, ((1E,6E)-3,5-dioxohepta-1,6-diene-1,7-diyl)bis(2-methoxy-4,1-phenylene) (2S,2′S)-bis(2-((((9H-fluoren-9-yl)methoxy)carbonyl)amino)-3-phenylpropanoate)] | 0.25 µg/mL | 0.226 µM | 0.5 µg/mL | 0.452 µM | 2 µg/mL | 1.81 µM | 31.01% | 18.84 ± 0.69 µM | 0.125 µg/mL | 0.113 µM | 0.25 µg/mL | 0.226 µM | 110 ± 7.3% | 84.7 ± 3.6% | 108 ± 3.6% | 1.78 ± 0.10 | 42.49 ± 2.71 | 98.3 ± 2.21%
5 | COc1cc(/C=C/C(=O)CC(=O)/C=C/c2ccc(OC(=O)[C@@H](NC(=O)OCC3c4ccccc4-c4ccccc43)C(C)C)c(OC)c2)ccc1OC(=O)[C@@H](NC(=O)OCC1c2ccccc2-c2ccccc21)C(C)C [Fmoc-Val-Cur, ((1E,6E)-3,5-dioxohepta-1,6-diene-1,7-diyl)bis(2-methoxy-4,1-phenylene) (2S,2′S)-bis(2-((((9H-fluoren-9-yl)methoxy)carbonyl)amino)-3-methylbutanoate)] | 0.5 µg/mL | 0.494 µM | 0.5 µg/mL | 0.494 µM | 0.5 µg/mL | 0.494 µM | 12.46% | 23.91 ± 0.87 µM | 0.5 µg/mL | 0.494 µM | 0.25 µg/mL | 0.247 µM | 81.8 ± 5.8% | 83.2 ± 0.8% | 116 ± 3.3% | 2.55 ± 0.13 | 25.15 | 100 ± 1.95%
